# Source: ChEMBL document CHEMBL6115025, “Discovery of Novel, Potent, Orally Bioavailable and Efficacious, Hypoxia-Inducible Factor Prolyl Hydroxylase Inhibitors for Hematopoietic Stem Cell Mobilization” (J Med Chem, 2025)
# Columns and labels:
# [1] = molecular target: Voltage-gated inwardly rectifying potassium channel KCNH2 (Homo sapiens, UniProt Q12809); assay: Inhibition of human ERG upto 100 uM; format: toxicity
# Egl nine homolog 1 = Egl nine homolog 1 (Homo sapiens, UniProt Q9GZT9); assay: Inhibition of PHD2 (unknown origin) using [1-14C]alphaKG as substrate assessed as substrate decarboxylation by measuring 14CO2 production incubated for 2 hrs by microplate reader analysis
# Chain of Egl nine homolog 1 (Q9GZT9 whole entry): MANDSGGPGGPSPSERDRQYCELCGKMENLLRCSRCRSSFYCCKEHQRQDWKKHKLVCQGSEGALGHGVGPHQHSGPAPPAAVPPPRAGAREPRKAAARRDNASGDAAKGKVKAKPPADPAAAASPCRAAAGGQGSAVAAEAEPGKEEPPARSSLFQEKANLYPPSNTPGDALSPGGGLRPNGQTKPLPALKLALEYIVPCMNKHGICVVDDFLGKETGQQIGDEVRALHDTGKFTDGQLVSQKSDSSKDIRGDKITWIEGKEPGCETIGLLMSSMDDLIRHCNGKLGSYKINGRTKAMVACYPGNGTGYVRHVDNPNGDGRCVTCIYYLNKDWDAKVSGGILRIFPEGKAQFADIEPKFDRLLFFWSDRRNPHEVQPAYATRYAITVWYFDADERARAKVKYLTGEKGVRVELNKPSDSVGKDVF
# Chain of Voltage-gated inwardly rectifying potassium channel KCNH2 (Q12809 whole entry): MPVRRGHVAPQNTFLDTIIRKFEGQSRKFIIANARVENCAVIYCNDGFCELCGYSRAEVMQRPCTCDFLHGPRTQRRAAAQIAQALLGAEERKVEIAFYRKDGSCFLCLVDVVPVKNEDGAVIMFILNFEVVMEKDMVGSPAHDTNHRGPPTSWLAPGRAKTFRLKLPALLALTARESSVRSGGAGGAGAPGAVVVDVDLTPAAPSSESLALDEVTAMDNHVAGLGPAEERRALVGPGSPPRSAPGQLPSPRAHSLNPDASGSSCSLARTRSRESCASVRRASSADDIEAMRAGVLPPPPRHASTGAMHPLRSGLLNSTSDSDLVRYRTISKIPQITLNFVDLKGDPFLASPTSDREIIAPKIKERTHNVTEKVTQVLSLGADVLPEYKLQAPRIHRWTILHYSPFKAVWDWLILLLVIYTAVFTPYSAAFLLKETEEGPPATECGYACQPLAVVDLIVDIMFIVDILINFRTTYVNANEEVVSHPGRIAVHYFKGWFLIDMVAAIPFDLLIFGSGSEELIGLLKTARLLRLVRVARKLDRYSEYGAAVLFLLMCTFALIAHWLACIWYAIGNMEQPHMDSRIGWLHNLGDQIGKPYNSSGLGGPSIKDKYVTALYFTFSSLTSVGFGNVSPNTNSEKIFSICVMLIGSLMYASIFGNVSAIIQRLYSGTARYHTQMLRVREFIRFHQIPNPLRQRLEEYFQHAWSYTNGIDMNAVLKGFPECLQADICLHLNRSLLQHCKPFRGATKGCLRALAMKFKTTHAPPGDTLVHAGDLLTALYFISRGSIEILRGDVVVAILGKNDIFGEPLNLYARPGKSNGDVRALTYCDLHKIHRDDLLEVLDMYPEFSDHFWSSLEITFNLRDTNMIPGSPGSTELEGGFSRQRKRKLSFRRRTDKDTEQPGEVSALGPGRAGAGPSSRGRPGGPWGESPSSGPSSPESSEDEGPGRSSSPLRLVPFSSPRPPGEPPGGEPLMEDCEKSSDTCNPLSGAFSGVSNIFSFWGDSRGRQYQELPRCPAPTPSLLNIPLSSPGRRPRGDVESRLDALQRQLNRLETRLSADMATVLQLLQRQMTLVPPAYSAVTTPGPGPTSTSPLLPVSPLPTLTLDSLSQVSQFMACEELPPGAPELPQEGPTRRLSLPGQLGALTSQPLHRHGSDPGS
IC50 (Egl nine homolog 1),SMILES,inhibition (INH) [1]
,O=C(NCc1ccnnc1)c1ncc2c(=O)n(C3CCCCC3)ccc2c1O,Not_active
200 nM,O=C(NCc1ccncc1)c1ncc2c(=O)n(Cc3ccccc3)ccc2c1O,
